Experimental findings from patent US9895344B2, “Treating various disorders with 7,8-dihydroxyflavone and derivatives thereof” (EMORY UNIVERSITY, priority 2008, dated 2018) are described below.

Data set [1] is described as follows: Toxicity after 3-week chronic treatment (organ pathology, complete blood count). As to conditions: mouse, in vivo. Type of data set: in vivo, mice. How it is done: To explore whether 4′-dimethylamino-7,8-dihydroxyflavone and 7,8-dihydroxyflavone have any intolerable toxicity, the major organs from mice treated with both compounds at 5 mg/kg/day for 3 weeks were analyzed.

In data set [2] the test system is KA-induced neuronal apoptosis. The experiment in a line: Kainic acid time course assay, oral TrkB agonists (caspase-3 immunoblot of brain lysates). Type of data set: in vivo, C57BL/6J mice. The following applies: 1 mg/kg orally, KA 20 mg/kg i.p., FIG. 30 left. How it is done: Male C57BL/6 mice age 60 days were orally injected with a single dose of 4′-DMA-7,8-DHF or 7,8-DHF (1 mg/kg each). KA (20 mg/kg) was i.p. injected. Animals were continually monitored for 2 hours for the onset of seizure activity. At 0, 4 and 8 hours following TrkB agonist treatment, the animals were sacrificed and the brain lysates were analyzed by immunoblotting with p-TrkB-Y817, active caspase-3 and total TrkB antibodies.
To investigate whether these compounds exert any neuroprotective effects in animals, a time course assay was conducted.

A further data set addresses TrkA (Mus musculus, UniProt Q3UFB7). Briefly: Immunoblotting of brain lysates from forced swim test mice: TrkA. The following applies: 5 mg/kg, 21 days oral, anti-p-TrkA 794, FIG. 35. On the set-up: from tissue; host or cells: mouse brain. The data set is classed as in vivo. How it is done:
(§1) To explore whether 4′-DMA-7,8-DHF and 7,8-DHF have any antidepressant effect, a forced swim test (6 minutes, immobility recorded in the last 4 minutes) was conducted after chronic treatment of male C57BL/6J mice (8 mice/group) for 21 days via oral injection.
For orientation: In western blotting, separated proteins are transferred to a membrane and probed.

The target in data set [3] is T1, TrkB (Rattus norvegicus, UniProt Q63604). Briefly: TrkB activation in primary cortical neurons (p-TrkB Y817 immunoblotting). Type of data set: cell-based. On the set-up: endogenous in cells; host or cells: primary cortical neurons. The protocol:
Primary cultured rat cortical neurons were prepared as follows. E17 rat pups were decapitated and cortex was extirpated, cross chopped, and suspended by pipetting for separation in 5% fetal calf serum (FCS), 5% horse serum (HS) DMEM. The cell suspension was then centrifuged at 250×g for 5 minutes. This operation was repeated again. Cells were seeded into polyethyleneimine-coated 10 cm^2 dishes and 12-well plates including coated-coverslips and incubated at 37° C. in 5% CO2/95% air. After 3 hours, the culture medium was changed to Neurobasal containing B-27 supplement (Invitrogen; Carlsbad, Calif.) and incubated for 4 days. For maintenance, half of the culture medium was changed to fresh Neurobasal/B27 every 4 days. After 1 week, the dished cultured neurons were ready for use.
To compare the TrkB activation by the synthetic compounds of Examples 9 and 10 (see FIG. 26), primary cortical cultures were prepared. The cortical neurons were treated with 500 nM of various compounds for 30 min and collected the cell lysates. […] Replacing the H-bond acceptor O atom with hydrogen bond donor NH reduced its stimulatory effect. […] In comparison, 7,8-DHF provoked TrkB activation with the minimal concentration of 100 nM (FIG. 27, right panels).

Another data set deals with caspase-3 activation. Briefly: Active caspase-3 ELISA in glutamate-treated cortical neurons. The data set is classed as cell-based, rat. As to conditions: 50 μM glutamate for 16 hours. The protocol:
To quantitatively compare the anti-apoptotic activity of 7,8-DHF and 4′-DMA-7,8-DHF, cortical neurons were prepared from E16 rat embryonic cells and pretreated with various indicated concentrations of 4′-DMA-7,8-DHF and 7,8-DHF for 30 min, followed by 50 μM glutamate for 16 hours. The cell lysates were quantitatively analyzed with an active caspse-3 ELISA.
Background: ELISA stands for enzyme-linked immunosorbent assay.

In data set [4] the test system is KA-induced caspase-3 activation. The experiment in a line: KA-induced neuronal cell death in TrkB F616A mice, oral TrkB agonists. Type of data set: in vivo, TrkB F616A knock-in mice. The protocol:
TrkB F616A knockin mice (2-3 months old) were fed 1NMPP1 (25 μM) in drinking water one day before pharmacological reagent treatment. The next day, the mice were orally injected with 7,8-DHF or 4′-DMA-7,8-DHF (5 mg/kg) 4 hours before kainic acid (20 mg/kg). The control mice were injected with saline, 1NMPP1, kainic acid alone or administrated 7,8-DHF or 4′-DMA-7,8-DHF 4 hours before kainic acid. In 4 days, the mice were sacrificed and brains were homogenized and ultra-centrifuged. The supernatant (40 μg) was employed for SDS-PAGE and immunoblotting analysis with indicated antibodies, respectively.
To explore whether the neuroprotective effect of these small molecules is dependent on TrkB activation in vivo, TrkB F616A knock-in mice were used.

For data set [5], the system named is progenitor proliferation in hippocampus. The experiment in a line: Neurogenesis analysis in hippocampus (BrdU). The data set is classed as in vivo, C57BL/6J mice. As to conditions: 5 mg/kg daily for 21 days, compared to vehicle control, FIGS. 32 and 33. The protocol: Adult male mice (2-3 months old) were orally injected with saline, 4′-DMA-7,8-DHF and 7,8-DHF (5 mg/kg) for 21 days. Then BrdU (50 mg/kg) was i.p. injected. In 2 hours, the mice were perfused with 4% paraformaldehyde. Immunohistochemical staining was performed on formalin-fixed paraffin-embedded sections. Sections from brain were cut, deparaffinized in xylene and rehydrated in graded alcohols. The slides were boiled in 10 mM citric acid (pH 6.0) for 10 minutes followed by an incubation in 2 N HCl for 10 minutes in room temperature. The slides were then permeabilized and blocked with 1% BSA in 0.2% PBST. The incorporated BrdU were stained using anti-BrdU-FITC (Abcam, Inc; Cambridge, Mass.) at 4° C. for 16 hours. After three washes in PBS, the cells were stained with DAPI for another 10 minutes at room temperature. The slides were mounted with AquaMount (Lerner Laboratories; Pittsburgh, Pa.) containing 0.01% 1,4-diazobicyclo(2,2,2)octane and examined under a fluorescence microscope.
To test whether increasing TrkB activation by 4′-dimethylamino-7,8-dihydroxyflavone would elevate neurogenesis, adult male C57BL/6J mice were injected daily for 21 days with either vehicle, 7,8-DHF, or 4′-DMA-7,8-DHF (5 mg/kg). At the end of treatment (day 21), the animals were injected with BrdU (50 mg/kg, i.p.) to label the dividing cells and were sacrificed 2 hours later. […]

Data set [6] deals with T2, TrkB (Mus musculus, UniProt P15209).
T2 construct: from tissue; host or cells: mouse brain
The experiment in a line: Immunoblotting of brain lysates from forced swim test mice: TrkB. Type of data set: in vivo. As to conditions: 5 mg/kg, 21 days oral, anti-p-TrkB 817, FIG. 35. How it is done:
as §1

The test system of data set [7] is immobility. Briefly: Forced swim test after 21 days oral treatment. Type of data set: in vivo, C57BL/6J mice. As to conditions: 5 mg/kg, oral injection, FIG. 34. How it is done:
Adult male mice (2-3 months old) were randomly submitted to a forced swim test without a pre-swim. Saline, 4′-DMA-7,8-DHF and 7,8-DHF (5 mg/kg) were orally injected for 21 days. The mice were allowed to adapt to the test room for 2 days. The mice were placed in a clear glass cylinder with a diameter of 16 cm, half-filled with clear water at 24° C.
as §1

The target in data set [8] is T2, TrkB. Briefly: Time course of TrkB activation in mouse brain. The data set is classed as in vivo, C57BL/6J mice. How it is done: To compare the stimulatory effect on TrkB receptor in mouse brain, 1 mg/kg of these compounds was injected into C57BL/6J mice and monitored TrkB activation at different time points (see FIG. 28). […] In contrast, 7,8-DHF triggered TrkB activation 2 h after oral injection and peaked at 4 h and TrkB activity progressively faded away. The TrkB activity was demonstrable even at 16 h (FIG. 28).

The next data set deals with immobility time. Briefly: Forced swim test in TrkB F616A knockin mice with saline or 1NMPP1 pretreatment. Type of data set: in vivo. The following applies: drugs for five days, FIG. 36. How it is done:
To assess whether the behavior responses by 7,8-DHF and its derivative are mediated by TrkB receptor, TrkB F616A knockin mice were utilized. The transgenic mice were subjected to saline or 1NMPP1 pretreatment (25 μM), respectively (drinking water provided one day prior to drug injection and maintained throughout whole experiment). The control and/or drugs were provided for five days. […] (Data presented in FIGS. 34, 35, and 36 as mean±SEM; *p<0.05 against vehicle, #P<0.01 against vehicle and ***P<0.0001 against vehicle, student t-test.)

Data set [9] has as its target T1, TrkB. The experiment in a line: Western analysis of TrkB activation in hippocampal neurons. On the set-up: endogenous in cells; host or cells: primary hippocampal neurons. Type of data set: cell-based. As to conditions: FIG. 10. The protocol:
To further examine whether 7,8-dihydroxyflavone can stimulate TrkB-mediated downstream signaling cascades, Western analysis was performed.
To further test that the stimulatory effect of 7,8-dihydroxyflavone is mediated through TrkB, cells were either untreated or treated with K252a, a selective inhibitor of the tyrosine kinase activity of the Trk family of neutrophin receptors.

Another data set relates to Akt and Erk1/2. The experiment in a line: Akt and Erk1/2 activation in cortical neurons from TrkB F616A knockin mice. As to conditions: inhibitor 100 nM. Type of data set: cell-based. The protocol:
(§2) To explore whether the neuroprotective action of 7,8-dihydroxyflavone is dependent on TrkB activation in vivo, TrkB F616A knockin mice were used. […] To further assess whether 7,8-dihydroxyflavone can mimic BDNF, cortical neurons were prepared from TrkB F616A knockin mice. The cortical neurons were pretreated for 30 minutes with either K252a Trk tyrosine kinase inhibitor (100 nM) or 1NMPP1 inhibitor (100 nM) followed by 0.5 μM 7,8-dihydroxyflavone for 30 minutes.

A further data set concerns the target T3, TrkB F616A (Mus musculus, UniProt P15209, F616A).
T3 construct: endogenous in cells; host or cells: cortical neurons of TrkB F616A knock-in mice
Briefly: TrkB phosphorylation in cortical neurons from TrkB F616A knockin mice. As to conditions: inhibitor 100 nM, pretreated 30 minutes. Type of data set: cell-based. The protocol:
as §2

Data set [10] concerns immobility. The experiment in a line: Forced swim test, 5 days intraperitoneal. Type of data set: in vivo, mice. As to conditions: intraperitoneally for 5 days; imipramine 20 mg/kg, amitryptyline 15 mg/kg, 7,8-dihydroxyflavone 5 mg/kg; FIG. 25.
Experimental: Adult male mice (2-3 months old, n=8) were randomly submitted, without a pre-swim, to a forced swim test of 6 minutes with immobility recorded in the last 4 minutes. Mice were injected intraperitoneally for 5 days with saline, imipramine (20 mg/kg), amitryptyline (15 mg/kg), or 7,8-dihydroxyflavone (5 mg/kg). The mice were allowed to adapt to the test room for 2 days, and the mice were placed in a clear glass cylinder with a diameter of 16 cm, half-filled with clear water at 24° C. […] Data are presented as mean±SEM; *p<0.05 against vehicle, **P<0.01 against vehicle and ***P<0.0001 against vehicle, student t-test.
Setting [11] is: 1 mg/kg, oral injection, FIG. 28.

T1 sequence (Q63604 32-821): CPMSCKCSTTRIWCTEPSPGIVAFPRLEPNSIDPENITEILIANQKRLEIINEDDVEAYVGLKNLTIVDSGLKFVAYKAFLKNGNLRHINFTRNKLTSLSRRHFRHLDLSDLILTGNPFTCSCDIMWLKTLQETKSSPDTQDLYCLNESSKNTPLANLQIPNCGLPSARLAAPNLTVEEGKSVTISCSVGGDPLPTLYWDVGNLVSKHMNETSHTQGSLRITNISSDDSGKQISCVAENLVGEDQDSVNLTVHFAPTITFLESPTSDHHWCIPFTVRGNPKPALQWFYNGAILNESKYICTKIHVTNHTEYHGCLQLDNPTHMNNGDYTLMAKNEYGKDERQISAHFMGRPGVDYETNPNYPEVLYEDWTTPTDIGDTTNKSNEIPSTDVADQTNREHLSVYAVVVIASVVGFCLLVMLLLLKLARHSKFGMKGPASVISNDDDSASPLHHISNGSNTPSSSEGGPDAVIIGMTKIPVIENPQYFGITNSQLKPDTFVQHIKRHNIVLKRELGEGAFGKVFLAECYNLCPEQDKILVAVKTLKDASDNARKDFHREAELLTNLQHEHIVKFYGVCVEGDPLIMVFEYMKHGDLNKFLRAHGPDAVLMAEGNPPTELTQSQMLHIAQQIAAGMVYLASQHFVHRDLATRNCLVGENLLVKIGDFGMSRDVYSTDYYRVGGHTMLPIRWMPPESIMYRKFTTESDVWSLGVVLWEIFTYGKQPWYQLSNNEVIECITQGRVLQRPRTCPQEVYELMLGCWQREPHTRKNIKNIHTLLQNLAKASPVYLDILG
T2 sequence (P15209 32-821): as the sequence (Q63604 32-821) above, with M3T, T9S, T10A, I32V, K63R, G84S, T153M, I185L, T394S, N770S counted along it
T3 sequence (P15209 32-821 F616A): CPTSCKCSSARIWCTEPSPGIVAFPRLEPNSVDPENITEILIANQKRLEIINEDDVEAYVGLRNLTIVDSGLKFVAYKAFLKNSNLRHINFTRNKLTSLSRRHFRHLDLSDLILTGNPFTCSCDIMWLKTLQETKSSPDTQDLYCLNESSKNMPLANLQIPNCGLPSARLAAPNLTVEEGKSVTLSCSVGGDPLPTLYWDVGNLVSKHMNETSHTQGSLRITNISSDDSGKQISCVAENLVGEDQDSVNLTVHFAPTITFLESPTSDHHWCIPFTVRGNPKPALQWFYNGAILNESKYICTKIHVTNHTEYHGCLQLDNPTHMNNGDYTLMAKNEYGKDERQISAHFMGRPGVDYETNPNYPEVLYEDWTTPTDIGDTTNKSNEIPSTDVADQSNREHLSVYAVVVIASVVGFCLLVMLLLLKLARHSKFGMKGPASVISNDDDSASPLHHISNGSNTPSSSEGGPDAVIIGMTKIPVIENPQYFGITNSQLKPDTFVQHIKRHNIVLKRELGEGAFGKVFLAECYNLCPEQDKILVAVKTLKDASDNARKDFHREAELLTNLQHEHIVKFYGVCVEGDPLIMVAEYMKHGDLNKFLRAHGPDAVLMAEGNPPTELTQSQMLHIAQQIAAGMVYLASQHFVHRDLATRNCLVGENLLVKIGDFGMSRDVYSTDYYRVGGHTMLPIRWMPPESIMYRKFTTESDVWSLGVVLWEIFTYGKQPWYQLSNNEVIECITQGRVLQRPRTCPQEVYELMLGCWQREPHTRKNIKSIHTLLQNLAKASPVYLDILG
TrkA, sequence (Q3UFB7 34-799): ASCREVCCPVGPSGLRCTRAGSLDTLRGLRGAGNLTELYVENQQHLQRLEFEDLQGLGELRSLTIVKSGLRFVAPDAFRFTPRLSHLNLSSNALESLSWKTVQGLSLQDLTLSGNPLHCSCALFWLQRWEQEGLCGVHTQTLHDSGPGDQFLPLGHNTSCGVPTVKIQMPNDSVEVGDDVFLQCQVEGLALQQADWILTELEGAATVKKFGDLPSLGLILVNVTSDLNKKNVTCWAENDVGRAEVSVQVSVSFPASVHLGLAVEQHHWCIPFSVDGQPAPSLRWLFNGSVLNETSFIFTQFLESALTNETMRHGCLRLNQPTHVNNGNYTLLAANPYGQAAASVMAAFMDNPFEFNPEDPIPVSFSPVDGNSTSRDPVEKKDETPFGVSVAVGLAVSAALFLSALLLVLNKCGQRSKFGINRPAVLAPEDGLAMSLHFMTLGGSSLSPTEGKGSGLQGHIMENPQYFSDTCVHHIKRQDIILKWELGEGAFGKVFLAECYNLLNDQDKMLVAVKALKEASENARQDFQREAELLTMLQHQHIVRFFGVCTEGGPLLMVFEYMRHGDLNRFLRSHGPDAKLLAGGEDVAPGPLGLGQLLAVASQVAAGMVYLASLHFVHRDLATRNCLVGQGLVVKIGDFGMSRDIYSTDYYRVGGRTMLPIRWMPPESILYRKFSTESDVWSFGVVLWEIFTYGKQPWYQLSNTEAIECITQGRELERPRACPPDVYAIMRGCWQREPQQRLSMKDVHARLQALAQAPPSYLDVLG

As for `CN(C)c1ccc(-c2cc(=O)c3ccc(O)c(O)c3o2)cc1` [4′-DMA-7,8-DHF, 4′-Dimethylamino-7,8-dihydroxyflavone], in [1], the “complete blood count (CBC) versus control saline-treated mice” value was “no significant difference” and the “toxicity to the mice” value is “neither compound was toxic”. For the same compound, the “KA-induced neuronal apoptosis over time” value in data set [2] is “gradually decreased”. In addition, the “TrkA activation in mouse brain” value on TrkA was “not TrkA activation”. For the same compound, the TrkB activation result at TrkB [3] (500 nM, 30 min, FIG. 27 left) is on record as “robustly provoked TrkB activation”. Besides, the “minimal concentration triggering TrkB activation (titration assay)” value on TrkB [3] (FIG. 27 right) amounted to 10 nM. For the same compound, the “inhibitory effect on caspase-3 activation at 10 nM” value in the data set on caspase-3 activation (10 nM) is listed as “more robust inhibitory effect than 7,8-DHF”. The “Glutamate-provoked caspase-3 activation” value with caspase-3 activation (50 nM or higher concentrations, FIG. 29) is on record as “substantially blocked”. Moreover, the “KA-caused caspase-3 activation” value in data set [4] (5 mg/kg orally 4 hours before kainic acid (20 mg/kg), FIG. 31) was “markedly diminished”. In addition, the “protective effect after 1NMPP1 pretreatment” value in data set [4] (1NMPP1 (25 μM) in drinking water, FIG. 31 top) was “abolished”. Further, the “TrkB phosphorylation after 1NMPP1 pretreatment” value in [4] (FIG. 31, 2nd panel) is listed as “notably blocked”. Further, the “neurogenesis (BrdU)” value in data set [5] is listed as “increased neurogenesis”. For the same compound, the “TrkB activation in mouse brain” value at TrkB [6] was “provoke TrkB”. Also, the swimming immobility result in the data set on immobility [7] is recorded as “evidently reduced the immobility”. Moreover, on TrkB [8] (setting [11]), the “TrkB activity at 16 h” value is “partially decayed”, the “time at which TrkB activation was elicited” value is 1 h and the “time at which TrkB activity peaked” value is on record as 8 h. On TrkB [8] (mouse, in vivo), the “agonistic effect on TrkB relative to 7,8-DHF” value is “about 10 fold” and the “duration of agonistic effect in animals relative to 7,8-DHF” value is on record as “sustained longer”. Moreover, the “immobility time after 1NMPP1 treatment” value in the data set on immobility time (1NMPP1 25 μM in drinking water) is “neither 4′-DMA-7,8-DHF nor 7,8-DHF had any significant effect”. Moreover, in the data set on immobility time, the “immobility time, saline group” value is “substantially reduced the immobility time”.

`COC(=O)[C@@]1(O)C[C@H]2O[C@]1(C)n1c3ccccc3c3c4c(c5c6ccccc6n2c5c31)C(=O)NC4` [K252a]: the “effect on TrkB tyrosine phosphorylation in cells exposed to 7,8-dihydroxyflavone” value on TrkB [9] is given as “blocked TrkB tyrosine phosphorylation”. In addition, the “blocking of BDNF-triggered Akt and Erk1/2 activation” value in the data set with Akt and Erk1/2 is on record as “not”. Also, the “blocking of BDNF-provoked TrkB phosphorylation” value at TrkB F616A was “not”. In addition, the “blocking of 7,8-dihydroxyflavone-provoked TrkB phosphorylation” value on TrkB F616A (0.5 μM 7,8-dihydroxyflavone) is on record as “not”.

For `CN(C)CCC=C1c2ccccc2CCc2ccccc21` [amitryptyline], the swimming immobility result in the data set with immobility [10] is listed as “decreased”.

As for `CN(C)CCCN1c2ccccc2CCc2ccccc21` [imipramine], the swimming immobility entry in the data set with immobility [10] is “decreased”.
